The record followed here is PubChem BioAssay (NCI).

Among the test systems are T-47D breast; MOLT-4 leukemia; ACHN renal; BT-549 breast; SK-OV-3 ovarian; 786-0 renal; KM20L2 colon; DMS 273 small cell lung; M19-MEL melanoma; XF 498 CNS; DMS 114 small cell lung; DLD-1 colon; SNB-78 CNS; LXFL 529 NSCLC; SN12K1 renal; HOP-18 NSCLC; P388 leukemia.
Assay in all cases: NCI tumour cell line growth inhibition, 48 h

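Each compound was tested at five concentrations against cells in 96-well plates for 48 hours. The concentration for 50% growth inhibition is given as GI50. TGI: total growth inhibition.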

With `Cc1[nH]nc(C(F)(F)F)c1N=NN1CCOCC1`, the TGI in the test with T-47D breast is > 42.8 µM; with MOLT-4 leukemia, 5.32 µM; in the test on ACHN renal, 17.7 µM; with BT-549 breast it was 25.1 µM; with SK-OV-3 ovarian it was 31.7 µM.

Regarding `COc1ccc2cc(/C=N/NC(=O)Nc3ccccc3)ccc2c1`, the TGI in the test on T-47D breast, in the test on MOLT-4 leukemia, in the test on BT-549 breast and in the test with SK-OV-3 ovarian was > 100 µM each time.

As to `O=c1cnn(C/C=C/CO)c(=O)[nH]1`, the TGI with T-47D breast, with ACHN renal and with BT-549 breast was > 100 µM throughout.

For `CN(C)CCCN1CCC2(CCC(C(C)(C)C)CC2)CC1`, the TGI with T-47D breast amounted to 3.99 µM; with 786-0 renal, 3.09 µM; in the test on MOLT-4 leukemia it was 5.74 µM; with ACHN renal it was 18.8 µM; in the test with BT-549 breast, 24.5 µM; in the test with SK-OV-3 ovarian, 22.8 µM.

Regarding `CC(OC(C)(C)C)[C@H](NC(=O)OCC(Cl)(Cl)Cl)C(=O)O` (some centres not stated), the TGI with KM20L2 colon, in the test with MOLT-4 leukemia, in the test with DMS 273 small cell lung, in the test with ACHN renal, in the test with M19-MEL melanoma and with XF 498 CNS was > 100 µM throughout. Also, the TGI in the test with DMS 114 small cell lung, in the test with DLD-1 colon, in the test on SK-OV-3 ovarian, in the test on SNB-78 CNS and in the test on LXFL 529 NSCLC was > 100 µM throughout.

As to `CCC(/C=C/C1OC(=O)C=CC1C)=C\C(C)C/C=C/C(C)=C/C(C)C(=O)C(C)C(O)C(C)C/C(C)=C/C(=O)O` (configuration not stated), the TGI in the test on SN12K1 renal was 4.74 µM; with KM20L2 colon, 8.33 µM; with HOP-18 NSCLC, 16.3 µM; in the test with P388 leukemia, 6.6 µM; with DMS 273 small cell lung it was 27.1 µM; with M19-MEL melanoma, 6.49 µM. Also, the TGI in the test with DMS 114 small cell lung came out at 4.18 µM; in the test with DLD-1 colon, 35.8 µM; in the test on SK-OV-3 ovarian, 14.3 µM; with SNB-78 CNS, 14.3 µM. Also, the values for the GI50 with MOLT-4 leukemia and with SK-OV-3 ovarian were 2.33 pM and 95.4 pM, respectively.

With `S=C(S)NCNC(=S)S.[Zn+2]`, the TGI with T-47D breast, in the test with 786-0 renal, in the test on MOLT-4 leukemia, in the test with ACHN renal and in the test on SK-OV-3 ovarian was > 100 µM throughout.

As to `C[C@H](CCC(=O)O)[C@H]1CC[C@H]2[C@@H]3CC[C@@H]4C[C@H](O)CC[C@]4(C)[C@H]3C[C@H](O)[C@]12C`, the TGI in the test with T-47D breast is 91.2 µM; in the test on 786-0 renal, > 100 µM; in the test on MOLT-4 leukemia it was 62.3 µM; with ACHN renal it was > 100 µM; in the test on BT-549 breast it was > 100 µM; in the test with SK-OV-3 ovarian, 78.1 µM.

For `CC1(CCOCc2ccccc2)NC(=O)NC1=O` (configuration not stated), the TGI with 786-0 renal, with MOLT-4 leukemia, in the test on ACHN renal and with BT-549 breast was > 100 µM each time.

On to `O=C(Cn1c[n+](CC(=O)c2ccc(-c3ccccc3)cc2)c2ccccc21)Nc1cccc2cccnc12`, for which, in the test on ACHN renal, the GI50 was 3.06 µM and the TGI stood at 10.7 µM.

With `NCc1ccccc1-c1c2nc(c(-c3ccccc3CN)c3ccc([nH]3)c(-c3ccccc3CN)c3nc(c(-c4ccccc4CN)c4ccc1[nH]4)C=C3)C=C2`, the TGI is 63 µM in the test with KM20L2 colon; 8.81 µM in the test with HOP-18 NSCLC; 46.4 µM in the test on DMS 273 small cell lung; 35.3 µM with ACHN renal; 50.7 µM with M19-MEL melanoma; 40.9 µM in the test with SNB-78 CNS. Also, the TGI in the test on LXFL 529 NSCLC came out at 46.5 µM.

`Cn1c(=O)c(-c2ccccc2)c(N=[N+]=[N-])c2ccccc21`: the TGI was > 100 µM with T-47D breast; 85.4 µM in the test on MOLT-4 leukemia; 96.3 µM in the test with ACHN renal; > 100 µM with BT-549 breast; > 100 µM in the test with SK-OV-3 ovarian.

As for `O=C(O)CCC(NC(=O)c1ccc(Nc2nc3cc(C(F)(F)F)ccc3nc2-c2ccccc2)cc1)C(=O)O` (configuration not stated), the TGI with SN12K1 renal is > 100 µM; in the test on KM20L2 colon, 53.3 µM; in the test on MOLT-4 leukemia, > 100 µM; in the test on HOP-18 NSCLC, > 100 µM; with P388 leukemia it was > 100 µM; with DMS 273 small cell lung, 46.6 µM. Further, the TGI in the test with M19-MEL melanoma, in the test with XF 498 CNS, with DMS 114 small cell lung, with DLD-1 colon, with SK-OV-3 ovarian and with SNB-78 CNS was > 100 µM in each case.

For the compound `Cn1c(=O)c2c(nc(Cc3ccccc3)n2CC(=O)O)n(C)c1=O`, the TGI in the test with T-47D breast, with 786-0 renal, with MOLT-4 leukemia, in the test with ACHN renal and in the test with BT-549 breast was > 100 µM each time.
